Test [1] addresses hM3 muscarinic receptor (Homo sapiens (Human), UniProt P20309). Put plainly: Radioligand binding assay for muscarinic receptors ([3H]-NMS displacement, CHO cell membranes). The method, boiled down: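 [3H]-NMS displacement used homogenized CHO membranes, with test compounds at final concentrations of […]. Plates were incubated 6 hours at 37 °C, then filtered and read by liquid scintillation counting. A one-site competition fit gave values that were converted to Ki.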

The target of test [2] is hβ2 adrenergic receptor (Homo sapiens (Human), UniProt P07550). Put plainly: Assay for determining adrenergic receptor agonist potency (cAMP Flashplate, HEK-293 cells). The conditions noted are these: data rounded to nearest 1 nM. The class given is cell-based.
hβ2 adrenergic receptor, sequence (P07550 whole entry): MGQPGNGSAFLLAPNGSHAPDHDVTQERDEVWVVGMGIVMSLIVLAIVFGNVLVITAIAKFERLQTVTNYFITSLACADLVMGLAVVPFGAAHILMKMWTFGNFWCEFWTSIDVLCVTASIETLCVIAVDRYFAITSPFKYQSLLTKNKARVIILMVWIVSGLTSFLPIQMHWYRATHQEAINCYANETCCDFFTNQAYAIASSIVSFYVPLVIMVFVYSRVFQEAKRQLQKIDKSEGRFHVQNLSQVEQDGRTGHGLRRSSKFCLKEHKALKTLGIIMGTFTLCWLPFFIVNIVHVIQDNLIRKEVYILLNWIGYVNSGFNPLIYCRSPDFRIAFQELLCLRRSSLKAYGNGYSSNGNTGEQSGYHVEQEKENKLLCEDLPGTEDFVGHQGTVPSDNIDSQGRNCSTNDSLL
The test system of test [3] is MCh-induced bronchoconstriction. The experiment in a line: Einthoven assay: bronchoprotection against methacholine (MCh)-induced bronchoconstriction. As to conditions: rat, 100 μg by inhalation, 24 h after administration; for inhibition in vivo at 0.1 mg: inhaled or nasal, read-out: Broncho. at 24 h. Type of test: in vivo, rat. Put shortly:
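Male Sprague-Dawley rats received 100 μg compound (unless stated) or water vehicle by 10-min inhalation. At set times, anesthetized, ventilated rats were challenged with IV MCh at 40 and 80 μg/kg (2.5-min infusions). Ventilation-pressure rise is expressed as % inhibition versus vehicle controls.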

Where [4] appears, read: hM3 Muscarinic Receptor Binding, data rounded to nearest 0.1 nM.

Read-outs that look alike come from different tables or passages of the source.

hM3 muscarinic receptor, sequence (P20309 whole entry): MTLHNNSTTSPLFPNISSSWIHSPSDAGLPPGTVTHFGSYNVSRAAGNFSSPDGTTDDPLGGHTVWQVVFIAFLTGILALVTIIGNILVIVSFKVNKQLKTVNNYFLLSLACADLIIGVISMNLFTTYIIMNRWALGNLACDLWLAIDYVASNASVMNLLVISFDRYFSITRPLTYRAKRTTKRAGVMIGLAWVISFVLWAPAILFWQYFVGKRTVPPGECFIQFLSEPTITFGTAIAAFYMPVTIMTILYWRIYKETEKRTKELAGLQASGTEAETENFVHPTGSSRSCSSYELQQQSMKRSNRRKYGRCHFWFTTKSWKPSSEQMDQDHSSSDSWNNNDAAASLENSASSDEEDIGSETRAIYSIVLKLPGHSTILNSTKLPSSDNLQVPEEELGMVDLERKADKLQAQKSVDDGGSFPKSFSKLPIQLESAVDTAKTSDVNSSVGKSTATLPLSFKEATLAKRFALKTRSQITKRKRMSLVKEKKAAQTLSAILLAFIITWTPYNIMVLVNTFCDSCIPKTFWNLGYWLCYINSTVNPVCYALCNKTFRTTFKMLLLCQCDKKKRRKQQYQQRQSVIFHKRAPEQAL

The Ki is the equilibrium dissociation constant of an inhibitor or competing ligand from its target. Read a low Ki as a stronger hold on the target. In general, EC50 refers to the concentration needed to bring the measured effect to its halfway point. A higher EC50 goes with lower potency in that assay. In test [1], `CN(C(=O)CCN1CCC(OC(=O)Nc2ccccc2-c2ccccc2)CC1)c1cccc(C(=O)Nc2cccc(CCNC[C@H](O)c3ccc(O)c4[nH]c(=O)ccc34)c2)c1` [Compound I-32] gave a Ki of 0.1 nM. Besides, the EC50 in test [2] worked out at 1 nM. Besides, in test [3], the “Broncho. at 24 h” value was “No”.
For `Cc1ccc(C(=O)Nc2cccc(CCNC[C@H](O)c3ccc(O)c4[nH]c(=O)ccc34)c2)cc1N(C)C(=O)CCN1CCC(OC(=O)Nc2ccccc2-c2ccccc2)CC1` [Compound I-33], in that order: 0.2 nM, 1 nM and “No”.
As for `CC(Cc1cccc(NC(=O)c2cccc(N(C)C(=O)CCN3CCC(OC(=O)Nc4ccccc4-c4ccccc4)CC3)c2)c1)NC[C@H](O)c1ccc(O)c2[nH]c(=O)ccc12` (stereo partly drawn) [Compound I-36], the affinity in test [1] corresponds to a Ki of 0.2 nM. In test [2], this compound yielded an EC50 of 1 nM. In addition, the inhibition in vivo at 0.1 mg in test [3] was above 30%.
The compound `Cc1ccc(C(=O)Nc2cccc(CC(C)NC[C@H](O)c3ccc(O)c4[nH]c(=O)ccc34)c2)cc1N(C)C(=O)CCN1CCC(OC(=O)Nc2ccccc2-c2ccccc2)CC1` (stereo partly drawn) [Compound I-37] yielded a Ki in test [1] of 0.2 nM. The compound also returned an EC50 in test [2] of 1 nM. For the same compound, the “Broncho. at 24 h” value in test [3] is “No”.
In the same order, the values of `C[C@H](Cc1cccc(NC(=O)c2cccc(N(C)C(=O)CCN3CCC(OC(=O)Nc4ccccc4-c4ccccc4)CC3)c2)c1)NC[C@H](O)c1ccc(O)c2[nH]c(=O)ccc12` [Compound I-38] are 0.2 nM, 1 nM and “No”.
For `C[C@@H](Cc1cccc(NC(=O)c2cccc(N(C)C(=O)CCN3CCC(OC(=O)Nc4ccccc4-c4ccccc4)CC3)c2)c1)NC[C@H](O)c1ccc(O)c2[nH]c(=O)ccc12` [Compound I-39], the affinity in test [1] corresponds to a Ki of 0.2 nM. The compound also had an EC50 in test [2] of 1 nM. The “Broncho. at 24 h” value in test [3] is given as “No”.
Compound `Cc1ccc(C(=O)Nc2ccc(CC(C)NC[C@H](O)c3ccc(O)c4[nH]c(=O)ccc34)cc2)cc1N(C)C(=O)CCN1CCC(OC(=O)Nc2ccccc2-c2ccccc2)CC1` (stereo partly drawn) [Compound I-41] registered a Ki in test [1] (setting [4]) of 0.3 nM. This compound had a concentration for a half-maximal effect (EC50) in test [2] of 1 nM. In test [3], the “Broncho. at 24 h” value is “No”.
In the case of `CC(Cc1cccc(CNC(=O)c2cccc(N(C)C(=O)CCN3CCC(OC(=O)Nc4ccccc4-c4ccccc4)CC3)c2)c1)NC[C@H](O)c1ccc(O)c2[nH]c(=O)ccc12` (stereo partly drawn) [Compound I-44], the affinity in test [1] corresponds to a Ki of 0.1 nM. The concentration for a half-maximal effect (EC50) in test [2] was found to be 1 nM. Also, the “Broncho. at 24 h” value in test [3] is recorded as “No”.
`Cc1ccc(C(=O)NCc2cccc(CC(C)NC[C@H](O)c3ccc(O)c4[nH]c(=O)ccc34)c2)cc1N(C)C(=O)CCN1CCC(OC(=O)Nc2ccccc2-c2ccccc2)CC1` (stereo partly drawn) [Compound I-45] had a Ki in test [1] (setting [4]) of 0.2 nM. In test [2], this compound gave an EC50 of 1 nM. The “Broncho. at 24 h” value in test [3] was “No”.
Compound `CC(Cc1ccc(CNC(=O)c2cccc(N(C)C(=O)CCN3CCC(OC(=O)Nc4ccccc4-c4ccccc4)CC3)c2)cc1)NC[C@H](O)c1ccc(O)c2[nH]c(=O)ccc12` (stereo partly drawn) [Compound I-46] showed a Ki in test [1] of 0.1 nM. Besides, the EC50 in test [2] worked out at 1 nM. Further, in test [3], the inhibition in vivo at 0.1 mg was above 30%.
For `C[C@H](Cc1ccc(CNC(=O)c2cccc(N(C)C(=O)CCN3CCC(OC(=O)Nc4ccccc4-c4ccccc4)CC3)c2)cc1)NC[C@H](O)c1ccc(O)c2[nH]c(=O)ccc12` [Compound I-48], in that order: 0.3 nM, 1 nM and above 30%.
For `C[C@@H](Cc1ccc(CNC(=O)c2cccc(N(C)C(=O)CCN3CCC(OC(=O)Nc4ccccc4-c4ccccc4)CC3)c2)cc1)NC[C@H](O)c1ccc(O)c2[nH]c(=O)ccc12` [Compound I-49], in that order: 0.1 nM, 1 nM and above 30%.
As for `CC(Cc1cccc(CC(=O)Nc2cccc(N(C)C(=O)CCN3CCC(OC(=O)Nc4ccccc4-c4ccccc4)CC3)c2)c1)NC[C@H](O)c1ccc(O)c2[nH]c(=O)ccc12` (stereo partly drawn) [Compound I-52], the Ki in test [1] was 0.2 nM. For the same compound, the EC50 in test [2] worked out at 1 nM. Moreover, in test [3], the “Broncho. at 24 h” value is “No”.
With `CC(Cc1ccc(CC(=O)Nc2cccc(N(C)C(=O)CCN3CCC(OC(=O)Nc4ccccc4-c4ccccc4)CC3)c2)cc1)NC[C@H](O)c1ccc(O)c2[nH]c(=O)ccc12` (stereo partly drawn) [Compound I-53], the affinity in test [1] corresponds to a Ki of 0.1 nM. The EC50 in test [2] was found to be 1 nM. The “Broncho. at 24 h” value in test [3] is reported as “No”.
Turning to `C[C@H](Cc1cccc(CCNC(=O)c2ccc(N(C)C(=O)CCN3CCC(OC(=O)Nc4ccccc4-c4ccccc4)CC3)cc2)c1)NC[C@H](O)c1ccc(O)c2[nH]c(=O)ccc12` [Compound I-55], the Ki in test [1] (setting [4]) turned out to be 0.2 nM. This compound also had an EC50 in test [2] of 1 nM. In test [3], the inhibition in vivo at 0.1 mg is above 30%.
Consider `C[C@@H](Cc1cccc(CCNC(=O)c2ccc(N(C)C(=O)CCN3CCC(OC(=O)Nc4ccccc4-c4ccccc4)CC3)cc2)c1)NC[C@H](O)c1ccc(O)c2[nH]c(=O)ccc12` [Compound I-56], for which the affinity in test [1] (setting [4]), expressed as Ki, was 0.2 nM. Moreover, the EC50 in test [2] came to 1 nM. Moreover, in test [3], the “Broncho. at 24 h” value is on record as “No”.
Regarding `COc1cc(NC(=O)Cc2cccc(N(C)C(=O)CCN3CCC(OC(=O)Nc4ccccc4-c4ccccc4)CC3)c2)c(Cl)cc1CNC[C@H](O)c1ccc(O)c2[nH]c(=O)ccc12` [Compound I-61], the Ki in test [1] (setting [4]) turned out to be 0.1 nM. Further, it took 1 nM to reach a half-maximal effect in test [2] (EC50). Also, the inhibition in vivo at 0.1 mg in test [3] was above 30%.
Consider `CN(C(=O)CCN1CCC(OC(=O)Nc2ccccc2-c2ccccc2)CC1)c1ccc(CC(=O)NCc2ccc(CCNC[C@H](O)c3ccc(O)c4[nH]c(=O)ccc34)cc2)cc1` [Compound I-64], for which the Ki in test [1] (setting [4]) came out at 0.3 nM. The EC50 in test [2] came to 1 nM. The “Broncho. at 24 h” value in test [3] is given as “No”.
In test [1], `CN(C(=O)CCN1CCC(OC(=O)Nc2ccccc2-c2ccccc2)CC1)c1ccc(CC(=O)NCc2cccc(CCNC[C@H](O)c3ccc(O)c4[nH]c(=O)ccc34)c2)cc1` [Compound I-65] had a Ki of 0.1 nM. In test [2], this compound yielded an EC50 of 1 nM. The inhibition in vivo at 0.1 mg in test [3] was above 30%.
With `CC(Cc1ccc(CNC(=O)Cc2ccc(N(C)C(=O)CCN3CCC(OC(=O)Nc4ccccc4-c4ccccc4)CC3)cc2)cc1)NC[C@H](O)c1ccc(O)c2[nH]c(=O)ccc12` (stereo partly drawn) [Compound I-66], affinity in test [1] was put at a Ki of 0.2 nM. Besides, the EC50 in test [2] was 1 nM. For the same compound, the “Broncho. at 24 h” value in test [3] is “No”.
In test [1], `CC(Cc1ccc(CNC(=O)Cc2ccc(N(C)C(=O)CCN3CCC(OC(=O)Nc4ccccc4-c4ccccc4)CC3)cc2)cc1)NC[C@H](O)c1ccc(O)c2[nH]c(=O)ccc12` (stereo partly drawn) [Compound I-67] came in with a Ki of 0.1 nM. Further, the EC50 in test [2] stood at 1 nM. Also, in test [3], the inhibition in vivo at 0.1 mg is above 30%.
For `C[C@H](Cc1cccc(CNC(=O)Cc2ccc(N(C)C(=O)CCN3CCC(OC(=O)Nc4ccccc4-c4ccccc4)CC3)cc2)c1)NC[C@H](O)c1ccc(O)c2[nH]c(=O)ccc12` [Compound I-68], in that order: 0.1 nM, 1 nM and above 30%.
In the same order, the values of `C[C@@H](Cc1cccc(CNC(=O)Cc2ccc(N(C)C(=O)CCN3CCC(OC(=O)Nc4ccccc4-c4ccccc4)CC3)cc2)c1)NC[C@H](O)c1ccc(O)c2[nH]c(=O)ccc12` [Compound I-69] are 0.1 nM, 1 nM and above 30%.
For `CC(Cc1cccc(CC(=O)NCc2ccc(N(C)C(=O)CCN3CCC(OC(=O)Nc4ccccc4-c4ccccc4)CC3)cc2)c1)NC[C@H](O)c1ccc(O)c2[nH]c(=O)ccc12` (stereo partly drawn) [Compound I-77], in that order: 0.1 nM, 1 nM and above 30%.
In test [1], `C[C@H](Cc1cccc(CC(=O)NCc2ccc(N(C)C(=O)CCN3CCC(OC(=O)Nc4ccccc4-c4ccccc4)CC3)cc2)c1)NC[C@H](O)c1ccc(O)c2[nH]c(=O)ccc12` [Compound I-78] showed a Ki of 0.3 nM. In test [2], this compound showed an EC50 of 1 nM. Also, the inhibition in vivo at 0.1 mg in test [3] is above 30%.
In turn, `C[C@@H](Cc1cccc(CC(=O)NCc2ccc(N(C)C(=O)CCN3CCC(OC(=O)Nc4ccccc4-c4ccccc4)CC3)cc2)c1)NC[C@H](O)c1ccc(O)c2[nH]c(=O)ccc12` [Compound I-79] gave a Ki in test [1] of 0.1 nM. The same compound gave an EC50 in test [2] of 1 nM. Also, the “Broncho. at 24 h” value in test [3] is “No”.
For the compound `CC(Cc1ccc(CC(=O)NCc2ccc(N(C)C(=O)CCN3CCC(OC(=O)Nc4ccccc4-c4ccccc4)CC3)cc2)cc1)NC[C@H](O)c1ccc(O)c2[nH]c(=O)ccc12` (stereo partly drawn) [Compound I-80], the Ki in test [1] (setting [4]) turned out to be 0.2 nM. In test [2], this compound had an EC50 of 1 nM. Moreover, in test [3], the “Broncho. at 24 h” value is on record as “No”.
Consider `COc1ccc(CC(=O)NCc2ccc(N(C)C(=O)CCN3CCC(OC(=O)Nc4ccccc4-c4ccccc4)CC3)cc2)cc1CC(C)NC[C@H](O)c1ccc(O)c2[nH]c(=O)ccc12` (stereo partly drawn) [Compound I-81], for which the Ki in test [1] (setting [4]) was 0.1 nM. In test [2], this compound came in with a concentration giving a half-maximal response (EC50) of 1 nM. In addition, the inhibition in vivo at 0.1 mg in test [3] was above 30%.
In the same order, the values of `COc1ccc(CC(=O)NCc2ccc(N(C)C(=O)CCN3CCC(OC(=O)Nc4ccccc4-c4ccccc4)CC3)cc2)cc1C[C@@H](C)NC[C@H](O)c1ccc(O)c2[nH]c(=O)ccc12` [Compound I-82] are 0.1 nM, 1 nM and above 30%.
In the same order, the values of `COc1ccc(CC(=O)NCc2ccc(N(C)C(=O)CCN3CCC(OC(=O)Nc4ccccc4-c4ccccc4)CC3)cc2)cc1C[C@H](C)NC[C@H](O)c1ccc(O)c2[nH]c(=O)ccc12` [Compound I-83] are 0.2 nM, 2 nM and above 30%.
